Assay results published in patent US9995734B2, “Human T cell line assay for evaluating the immunologic identity of glatiramer acetate preparations” (Mylan Inc., priority 2013, dated 2018).
Where “and” joins values, the source holds several entries; their conditions need not be identical. Equal values may be shown once.

Key:
[1] = system: Donor 3 GMA T-Cell Lines; experiment: ATP proliferation assay (CellTiter Glo), Donor 3 GMA T-cell lines, incl. reactivity to non-canonical GA peptides; assay type: cell-based, human
[2] = system: Donor 3 COP T-Cell Lines; experiment: ATP proliferation assay (CellTiter Glo), Donor 3 COP T-cell lines, incl. reactivity to non-canonical GA peptides; assay type: cell-based, human; conditions: for Non-Canonical Peptide Non-Reactivity: proliferation <2 times no antigen control

Q: poly (Glu-Lys-Tyr; 6:3:1) [GLT 631] was tested. Which “Proliferation (luminescent ATP assay), Mean” value (from here on “Proliferation … Mean”) ([1]; T-cell line 165-E9G, 10 μg/mL antigen, autologous B-LCL) did it give?
A: 312 RLU

Q: And the “Proliferation … Mean” value ([1]; T-cell line 165-E9G, 30 μg/mL antigen, Day 50 of culturing, No Antigen Value 1742)?
A: 2152 RLU

Q: What about the “Proliferation … Mean” value ([1]; T-cell line 165-E9G, 10 μpg/mL antigen, Day 50 of culturing, No Antigen Value 1742) of the same substance?
A: 2341 RLU

Q: And the “Proliferation … Mean” value ([1]; T-cell line 165-F5G, 1.25 μg/mL antigen, autologous B-LCL)?
A: 131 RLU

Q: And the “Proliferation … Mean” value ([1]; T-cell line 165-F5G, 2.5 μg/mL antigen, autologous B-LCL)?
A: 143 RLU

Q: What about the “Proliferation … Mean” value ([1]; T-cell line 165-F5G, 5 μg/mL antigen, autologous B-LCL) of the same substance?
A: 176 RLU

Q: And the “Proliferation … Mean” value ([1]; T-cell line 165-F5G, 10 μg/mL antigen, autologous B-LCL)?
A: 110 RLU

Q: What about the “Proliferation … Mean” value ([1]; T-cell line 165-F10G, 1 μg/mL antigen, Day 50 of culturing, No Antigen Value 3752) of the same substance?
A: 3363 RLU

Q: What about the “Proliferation … Mean” value ([1]; T-cell line 165-F10G, 1.25 μg/mL antigen, autologous B-LCL) of the same substance?
A: 1012 RLU

Q: And the “Proliferation … Mean” value ([1]; T-cell line 165-F10G, 2.5 μg/mL antigen, autologous B-LCL)?
A: 1389 RLU

Q: What about the “Proliferation … Mean” value ([1]; T-cell line 165-F10G, 3 μg/mL antigen, Day 50 of culturing, No Antigen Value 3752) of the same substance?
A: 3061 RLU

Q: What about the “Proliferation … Mean” value ([1]; T-cell line 165-F10G, 5 μg/mL antigen, autologous B-LCL) of the same substance?
A: 2620 RLU

Q: What about the “Proliferation … Mean” value ([1]; T-cell line 165-F10G, 10 μg/mL antigen, Day 50 of culturing, No Antigen Value 3752) of the same substance?
A: 4823 RLU

Q: What about the “Proliferation … Mean” value ([1]; T-cell line 165-F10G, 10 μg/mL antigen, autologous B-LCL) of the same substance?
A: 2505 RLU

Q: What about the “Proliferation … Mean” value ([1]; T-cell line 165-F10G, 30 μg/mL antigen, Day 50 of culturing, No Antigen Value 3752) of the same substance?
A: 4568 RLU

Q: And the “Proliferation … Mean” value ([1]; T-cell line 165-H11G, 1 μg/mL antigen, Day 50 of culturing, No Antigen Value 1485)?
A: 2763 RLU

Q: What about the “Proliferation … Mean” value ([1]; T-cell line 165-H11G, 1.25 μg/mL antigen, autologous B-LCL) of the same substance?
A: 29 RLU

Q: What about the “Proliferation … Mean” value ([1]; T-cell line 165-H11G, 2.5 μg/mL antigen, autologous B-LCL) of the same substance?
A: 344 RLU

Q: What about the “Proliferation … Mean” value ([1]; T-cell line 165-H11G, 3 μg/mL antigen, Day 50 of culturing, No Antigen Value 1485) of the same substance?
A: 2875 RLU

Q: What about the “Proliferation … Mean” value ([1]; T-cell line 165-H11G, 5 μg/mL antigen, autologous B-LCL) of the same substance?
A: 448 RLU

Q: What about the “Proliferation … Mean” value ([1]; T-cell line 165-H11G, 10 μg/mL antigen, Day 50 of culturing, No Antigen Value 1485) of the same substance?
A: 3028 RLU

Q: What about the “Proliferation … Mean” value ([1]; T-cell line 165-H11G, 10 μg/mL antigen, autologous B-LCL) of the same substance?
A: 435 RLU

Q: What about the “Proliferation … Mean” value ([1]; T-cell line 165-H11G, 30 μg/mL antigen, Day 50 of culturing, No Antigen Value 1485) of the same substance?
A: 3093 RLU

Q: What about the “Non-Canonical Peptide Non-Reactivity” value ([2]; 165-B6C) of the same substance?
A: GLT 631

Q: What about the “Non-Canonical Peptide Non-Reactivity” value ([2]; 165-C4C) of the same substance?
A: GLT 631

Q: And the “Non-Canonical Peptide Non-Reactivity” value ([2]; 165-C7C)?
A: GLT 631

Q: And the “proliferation response to non-canonical peptides” value ([2]; 165-E3C, separate experiment)?
A: did not react

Q: And the “Non-Canonical Peptide Non-Reactivity” value ([2]; 165-F3C)?
A: GLT 631

Q: What about the “Non-Canonical Peptide Non-Reactivity” value ([2]; 165-F6C) of the same substance?
A: GLT 631

Q: What about the “Non-Canonical Peptide Non-Reactivity” value ([2]; 165-U3C (so in the source)) of the same substance?
A: GLT 631

Q: What about the “Nonreactive T-Cell Line” value ([2]; Donor 3 COP lines, stimulation with the non-canonical GA peptide) of the same substance?
A: 165-B6C (Donor 3) and 165-C4C (Donor 3) and 165-C7C (Donor 3) and 165-E3C (Donor 3) and 165-F3C (Donor 3) and 165-F6C (Donor 3)

Q: What about the “Proliferation … Mean” value ([2]; T-cell line 165-C4C, 1 μg/mL antigen, Day 66 of culture, 0 μg/mL 1881) of the same substance?
A: 2465

Q: What about the “Proliferation … Mean” value ([2]; T-cell line 165-C4C, 3 μg/mL antigen, Day 66 of culture, 0 μg/mL 1881) of the same substance?
A: 2677

Q: What about the “Proliferation … Mean” value ([2]; T-cell line 165-C4C, 10 μg/mL antigen, Day 66 of culture, 0 μg/mL 1881) of the same substance?
A: 2939

Q: What about the “Proliferation … Mean” value ([2]; T-cell line 165-C7C, 1.25 μg/mL antigen, autologous B-LCL) of the same substance?
A: 273 RLU

Q: And the “Proliferation … Mean” value ([2]; T-cell line 165-C7C, 2.5 μg/mL antigen, autologous B-LCL)?
A: 219 RLU

Q: What about the “Proliferation … Mean” value ([2]; T-cell line 165-C7C, 5 μg/mL antigen, autologous B-LCL) of the same substance?
A: 273 RLU

Q: What about the “Proliferation … Mean” value ([2]; T-cell line 165-C7C, 10 μg/mL antigen, autologous B-LCL) of the same substance?
A: 219 RLU

Q: And the “Proliferation … Mean” value ([2]; T-cell line 165-F3C, 1 μg/mL antigen, Day 77 of culture, 0 μg/mL 1563)?
A: 2325

Q: And the “Proliferation … Mean” value ([2]; T-cell line 165-F3C, 3 μg/mL antigen, Day 77 of culture, 0 μg/mL 1563)?
A: 2557

Q: And the “Proliferation … Mean” value ([2]; T-cell line 165-F3C, 10 μg/mL antigen, Day 77 of culture, 0 μg/mL 1563)?
A: 2724

Q: And the “Proliferation … Mean” value ([2]; T-cell line 165-F6C, 1.25 μg/mL antigen, Day 76 of culture, No Antigen value 517)?
A: 501

Q: And the “Proliferation … Mean” value ([2]; T-cell line 165-F6C, 2.5 μg/mL antigen, Day 76 of culture, No Antigen value 517)?
A: 416

Q: And the “Proliferation … Mean” value ([2]; T-cell line 165-F6C, 5 μg/mL antigen, Day 76 of culture, No Antigen value 517)?
A: 482

Q: And the “Proliferation … Mean” value ([2]; T-cell line 165-F6C, 10 μg/mL antigen, Day 76 of culture, No Antigen value 517)?
A: 474
